Source: patent US7829063B2, “Development of molecular imaging probes for carbonic anhydrase-IX using click chemistry” (Siemens Medical Solutions USA, Inc., priority 2007, dated 2010)
Where two headings read alike, the source gives them in different places.

Biological target: T1, CA-IX (Homo sapiens, UniProt Q16790)
T1 construct: His tag (C); purchased R&D Systems Inc. 2188-CA; host or cells: mouse myeloma cell line NS0
Assay: CA-IX combinatorial library screening, competitive fluorescence-based assay with dansylamide (DNSA)
Type: binding
Conditions: sample concentrations 100 nM and 1000 nM, DNSA 200 μM, screening at 1 μM; for inhibition at 1 µM: 1 h
Experimental: General. CA-IX human recombinant enzyme was expressed with a C-terminal His tag in a mouse myeloma cell line, NS0 (R&D Systems Inc., catalog number 2188-CA). The human red blood cells were obtained from Research Blood Components, LLC. All absorbance measurements were performed on a SPECTRA MAX M2 plate reader at 25° C. The LC/MS analyses were performed on an Agilent 1100 series LC/MSD (SL) using a 30×2.1 mm Zorbax C8 column with a Phenomenex C18 pre-column. Compound detection was accomplished by electrospray mass spectroscopy in positive selected ion mode (LC/MS-SIM). The elution solvents were acetonitrile and water, contained 0.05% TFA. Nuclear magnetic resonance (NMR) spectra were obtained on a Bruker AMX 300 MHz spectrometer or a Varian 400. 19F NMR spectra were recorded on a Bruker AMX 282.35 MHz or a Varian 400 spectrometer. The mass spectra were recorded on an Agilent 1100 series LC/MSD with electrospray mass spectroscopic detection. Flash column chromatography was performed on Merck silica gel (40-63 μm) using the solvent system indicated. The radiochemical and chemical purities were analyzed by RP-HPLC.
General Combinatorial Library Screening Protocol for CA-IX
The CA-IX screening assay was employed for testing libraries derived from the various “anchor” molecules, using ethoxzolamide as a positive control. The assay was performed at a substrate (dansylamide, DNSA) concentration of 200 μM, and sample concentrations of 100 nM and 1000 nM, respectively. A modified competitive fluorescence-based assay (A. Jain, S. G. Huang, G. M. Whitesides, J. Am. Chem. Soc. 1994, 116, 5057) was used to measure CA-IX activity. The enzymatic assay was carried out in a 96-well plate. To the wells, deionized water, 40 μL of phosphate buffer (250 mM, pH 7.4), 2.4 μL of CA-IX (17 μM), and 2 μL or 20 μL of inhibitor (concentration of 100 nM or 1000 nM) were added to achieve a final volume of 180 μL. Reactions were initiated by adding 20 μL DNSA (200 μM) to each well and the plate was incubated at 25° C. for 1 hour. The fluorescence intensities from each well of the plate were then read at 460 nm using a plate reader with an excitation wavelength of 290 nm.

[1] = Table 2, Libraries 4-7, read-out: In Vitro Binding Assay (Library (Screening))
[2] = Table 1, Libraries 1-3, read-out: In Vitro Binding Assay (Library Screening)

Structure (SMILES)	inhibition at 1 µM [1] [%]	inhibition at 1 µM [2] [%]	also measured
CC(C)[C@@H](C(=O)NCCN1CCN(Cc2ccccc2)CC1)n1cc(-c2ccc(S(N)(=O)=O)cc2)nn1 [DHK191]	< 40		
CC(C)[C@H](C(=O)NCc1ccccc1)n1cc(-c2ccc(S(N)(=O)=O)cc2)nn1 [DHK23]		< 40	
CC(C)[C@@H](C(=O)N(C)Cc1ccccc1)n1cc(COc2ccc3nc(S(N)(=O)=O)sc3c2)nn1 [DHK-2-26]	< 40		
Cc1ccc(CNC(=O)[C@@H](C(C)C)n2cc(-c3ccc(S(N)(=O)=O)cc3)nn2)cc1F [DHK20]		< 40	
Cc1onc(-c2ccccc2)c1CNC(=O)[C@H](C(C)C)n1cc(-c2ccc(S(N)(=O)=O)cc2)nn1 [DHK182]	< 40		
NS(=O)(=O)c1nc2ccc(OCc3cn(CCn4c(=O)[nH]c5ccccc5c4=O)nn3)cc2s1 [DHK140]		< 40	
NS(=O)(=O)c1ccc(-c2cn(CC(O)CN3C(=O)c4ccccc4C3=O)nn2)cc1 (centres unmarked) [DHK8]		< 40	
NS(=O)(=O)c1nc2ccc(OCc3cn([C@@H](Cc4ccccc4)C(=O)NCc4ccc(-c5ccccn5)s4)nn3)cc2s1 [DHK-2-56]	< 40		
CCOC(=O)[C@@H](NC(=O)[C@H](C(C)C)n1cc(-c2ccc(S(N)(=O)=O)cc2)nn1)C(C)C [DHK176]	< 40		
NS(=O)(=O)c1ccc(-c2cn(CCOc3ccc4ccc(=O)oc4c3)nn2)cc1 [DHK63]		< 40	
NS(=O)(=O)c1ccc(C(=O)NCc2cn(-c3ccnc4cc(Cl)ccc34)nn2)cc1 [DHK86]		< 40	
CC(C)[C@@H](C(=O)NCc1ccco1)n1cc(CNC(=O)c2ccc(S(N)(=O)=O)cc2)nn1 [DHK54]		< 40	
CC(C)[C@@H](C(=O)NCC1CC1)n1cc(COc2ccc3nc(S(N)(=O)=O)sc3c2)nn1 [DHK-2-37]	< 40		
CCCOC(=O)c1ccc(NC(=O)Cn2cc(CNC(=O)c3ccc(S(N)(=O)=O)cc3)nn2)cc1 [DHK57]		< 40	
Cc1onc(-c2ccccc2)c1CNC(=O)[C@H](Cc1ccccc1)n1cc(-c2ccc(S(N)(=O)=O)cc2)nn1 [DHK-2-15]	< 40		
NS(=O)(=O)c1ccc(-c2cn([C@@H](Cc3ccccc3)C(=O)NCc3ccc(F)cc3)nn2)cc1 [DHK-2-1]	< 40		
Cc1onc(-c2ccccc2)c1CNC(=O)[C@H](C(C)C)n1cc(COc2ccc3nc(S(N)(=O)=O)sc3c2)nn1 [DHK-2-39]	< 40		
NS(=O)(=O)c1ccc(C(=O)NCc2cn(C3CCN(S(=O)(=O)/C=C/c4ccccc4)CC3)nn2)cc1 [DHK96]		< 40	
CCCCCC[C@H](O)[C@@H](O)c1ccc(Cn2cc(CNC(=O)c3ccc(S(N)(=O)=O)cc3)nn2)cc1 [DHK85]		< 40	
CC(C)[C@@H](C(=O)NC1c2ccccc2C[C@@H]1O)n1cc(-c2ccc(S(N)(=O)=O)cc2)nn1 (some centres unmarked) [DHK186]	< 40		

Structure (SMILES)	inhibition at 1 µM [1] [%]	inhibition at 1 µM [2] [%]	also measured
NS(=O)(=O)c1nc2ccc(OCc3cn([C@@H](Cc4ccccc4)C(=O)NCc4ccccn4)nn3)cc2s1 [DHK-2-62]	< 40		
NS(=O)(=O)c1nc2ccc(OCc3cn([C@@H](Cc4ccccc4)C(=O)NCC4CC4)nn3)cc2s1 [DHK-2-64]	< 40		
CC(C)[C@@H](C(=O)NC1CCCCC1)n1cc(COc2ccc3nc(S(N)(=O)=O)sc3c2)nn1 [DHK124]		< 40	
NS(=O)(=O)c1ccc(-c2cn(CC(=O)N3CCN(c4cc(Cl)cc(Cl)c4)CC3)nn2)cc1 [DHK107]		< 40	
CC(C)[C@@H](C(=O)NCc1ccccn1)n1cc(-c2ccc(S(N)(=O)=O)cc2)nn1 [DHK178]	< 40		
NS(=O)(=O)c1ccc(C(=O)NCc2cn(CC(=O)NC(Cc3cnc[nH]3)C(=O)O)nn2)cc1 (centres unmarked) [DHK92]		< 40	
CC(CN(C)C)Cn1cc(CNC(=O)c2ccc(S(N)(=O)=O)cc2)nn1 (centres unmarked) [DHK43]		< 40	
CC(C)[C@@H](C(=O)NCCc1ccsc1)n1cc(COc2ccc3nc(S(N)(=O)=O)sc3c2)nn1 [DHK139]		< 40	
CCOC(=O)[C@@H](Cc1ccccc1)NC(=O)[C@H](C(C)C)n1cc(-c2ccc(S(N)(=O)=O)cc2)nn1 [DHK175]	< 40		
COc1ccc2nc3cc(Cl)ccc3c(NCCCn3cc(-c4ccc(S(N)(=O)=O)cc4)nn3)c2c1 [DHK24]		< 40	
Cn1c(CNC(=O)[C@H](Cc2ccccc2)n2cc(-c3ccc(S(N)(=O)=O)cc3)nn2)nc2ccccc21 [DHK-2-22]	< 40		
CC(C)[C@@H](C(=O)N1CCN(c2ccccn2)CC1)n1cc(COc2ccc3nc(S(N)(=O)=O)sc3c2)nn1 [DHK-2-31]	< 40		
NS(=O)(=O)c1ccc(-c2cn(-c3ccnc4cc(Cl)ccc34)nn2)cc1 [DHK71]		< 40	
NS(=O)(=O)c1nc2ccc(OCc3cn([C@@H](Cc4ccccc4)C(=O)N4CCC[C@@H]4CO)nn3)cc2s1 [DHK-2-57]	< 40		
CC(C)[C@@H](C(=O)N1CCN(CCO)CC1)n1cc(COc2ccc3nc(S(N)(=O)=O)sc3c2)nn1 [DHK-2-42]	< 40		
CCOC(=O)C1CCN(C(=O)[C@H](C(C)C)n2cc(-c3ccc(S(N)(=O)=O)cc3)nn2)CC1 [DHK184]	< 40		
CCCCCCCCCCC(C(=O)O)n1cc(CNC(=O)c2ccc(S(N)(=O)=O)cc2)nn1 (centres unmarked) [DHK110]		< 40	
CCOC(=O)c1ccc(Cn2cc(-c3ccc(S(N)(=O)=O)cc3)nn2)cc1 [DHK22]		< 40	
NS(=O)(=O)c1nc2ccc(OCc3cn([C@@H](Cc4ccccc4)C(=O)NCc4ccc(C(F)(F)F)cc4)nn3)cc2s1 [DHK-2-51]			In Vitro Binding Assay (Library Screening) (Table 2, Libraries 4-7): √
NS(=O)(=O)c1ccc(-c2cn([C@@H](Cc3ccccc3)C(=O)NCC3COc4ccccc4O3)nn2)cc1 (some centres unmarked) [DHK-2-20]	< 40		

Structure (SMILES)	inhibition at 1 µM [1] [%]	inhibition at 1 µM [2] [%]	also measured
CCOC(=O)CCN(Cc1ccco1)C(=O)[C@H](C(C)C)n1cc(-c2ccc(S(N)(=O)=O)cc2)nn1 [DHK183]	< 40		
NS(=O)(=O)c1ccc(-c2cn(CCn3c(=O)[nH]c4ccccc4c3=O)nn2)cc1 [DHK78]		< 40	
CC(C)[C@@H](C(=O)NCCSCc1ccc(CN(C)C)o1)n1cc(COc2ccc3nc(S(N)(=O)=O)sc3c2)nn1 [DHK-2-27]	< 40		
NS(=O)(=O)c1nc2ccc(OCc3cn([C@@H](Cc4ccccc4)C(=O)NCC4COc5ccccc5O4)nn3)cc2s1 (some centres unmarked) [DHK-2-71]			In Vitro Binding Assay (Library Screening) (Table 2, Libraries 4-7): √
COC(=O)C(Cc1ccc(C(=O)O)cc1)n1cc(CNC(=O)c2ccc(S(N)(=O)=O)cc2)nn1 (centres unmarked) [DHK56]		< 40	
NCCCn1cc(-c2ccc(S(N)(=O)=O)cc2)nn1 [DHK108]		< 40	
CC(C)[C@@H](C(=O)NCCCO)n1cc(COc2ccc3nc(S(N)(=O)=O)sc3c2)nn1 [DHK-2-38]	< 40		
NS(=O)(=O)c1ccc(C(=O)NCc2cn(CCCCCCO)nn2)cc1 [DHK88]		< 40	
NS(=O)(=O)c1ccc(C(=O)NCc2cn(CCN3CCOCC3)nn2)cc1 [DHK34]		< 40	
NS(=O)(=O)c1ccc(C(=O)NCc2cn(Cc3cccc(Br)c3)nn2)cc1 [DHK47]		< 40	
NS(=O)(=O)c1ccc(-c2cn(CC(=O)NC(Cc3cnc[nH]3)C(=O)O)nn2)cc1 (centres unmarked) [DHK106]		< 40	
COC(=O)C(C)NC(=O)[C@H](Cc1ccccc1)n1cc(COc2ccc3nc(S(N)(=O)=O)sc3c2)nn1 (some centres unmarked) [DHK-2-61]			In Vitro Binding Assay (Library Screening) (Table 2, Libraries 4-7): √
CC(C)C[C@@H](C(=O)NCc1ccccc1)n1cc(-c2ccc(S(N)(=O)=O)cc2)nn1 [DHK12]		< 40	
NS(=O)(=O)c1ccc(-c2cn([C@@H](Cc3ccccc3)C(=O)NCc3ccccn3)nn2)cc1 [DHK-2-11]	< 40		
NS(=O)(=O)c1ccc(-c2cn([C@@H](Cc3ccccc3)C(=O)NCc3ccc(-c4ccccn4)s3)nn2)cc1 [DHK-2-5]	< 40		
CCOC(=O)c1ccc(Cn2cc(CNC(=O)c3ccc(S(N)(=O)=O)cc3)nn2)cc1 [DHK51]		< 40	
NS(=O)(=O)c1ccc(C(=O)NCc2cn(C3CCN(C(=O)/C=C/c4ccccc4)CC3)nn2)cc1 [DHK97]		< 40	
CC(C)(C)c1cc(C(=O)Cn2cc(COc3ccc4nc(S(N)(=O)=O)sc4c3)nn2)cc(C(C)(C)C)c1O [DHK132]		< 40	
NS(=O)(=O)c1ccc(-c2cn([C@@H](Cc3ccccc3)C(=O)NC3c4ccccc4C[C@@H]3O)nn2)cc1 (some centres unmarked) [DHK-2-19]	< 40		
